Key:
female BALB/c mice [1] = assay: Example 4: tissue specimen of back skin including administration site; format: in vivo; conditions: 7 days after the administration, intradermal
Description: (§1) Five-week-old female BALB/c mice (supplied by Charles River) were divided into administration groups of 2 mice and an untreated group of 3 mice. 100 μL of each test sample described in Table 5 was intradermally administered to mice of corresponding groups on days 0, 7, and 14 of the administration. […] The collected blood was incubated at 25° C. for 30 minutes and then preserved overnight at 4° C. to assemble a blood clot, centrifugation was performed at 1,000 to 1,200 × g at 4° C. for 20 minutes, and a supernatant was collected. The blood IgG value of the collected serum was measured using an IgG ELISA kit. The serum was diluted 200,000 times with a dilution buffer attached to the kit. In addition, the back skin including the administration site of the third test sample was collected after collecting blood to prepare a tissue specimen.
The method for preparing the above-described test sample is as follows. […]

female BALB/c mice [2] = assay: Example 4: blood IgG value (IgG ELISA kit) after three intradermal administrations; format: in vivo; conditions: in combination with any antigen protein (albumin, casein, lysozyme, papain); day 21
Description: as §1
The method for preparing the above-described test sample is as follows. That is, an antigen solution was prepared by dissolving an antigen protein in water, and the antigen solution and a 1.5 w/v % peptide composition (peptide compositions A to D described in Table 1) or PuraMatrix™ (which is manufactured by Corning Japan Ltd. and is a self-assembling peptide composition containing 1.0 w/v % of Ac-[…]-CONH2 (SEQ ID No: 18)) were mixed with each other so that the self-assembling peptide concentration became 0.75 w/v % and the antigen protein concentration became 0.25 mg/mL (=0.025 w/v %) to prepare a test sample. In addition, a sample obtained by mixing the above-described antigen solution with physiological saline so that the antigen protein concentration became 0.25 mg/mL was used as a control sample.

[3] = antigen protein; cited from earlier work

Molecule	remaining of test sample inside the skin (female BALB/c mice [1])	immunogenicity (blood IgG) (female BALB/c mice [2])	Isoelectric point [3]
Ac-RLDLRLALRLDLR-NH2 [SEQ ID No: 1]	the test sample remained inside the skin	enhanced	–
Ac-RLDLRLSLRLDLR-NH2 [SEQ ID No: 15]	the test sample remained inside the skin	enhanced	–
SEQ ID No: 16 (RLDLRLNLRLDLR; self-assembling peptide)	–	enhanced	–
OVA: Ovalbumin antigen, Wako Pure Chemical Industries (protein, UniProt P01012 2-386, looked up) Ovalbumin: GSIGAASMEFCFDVFKELKVHHANENIFYCPIAIMSALAMVYLGAKDSTRTQINKVVRFDKLPGFGDSIEAQCGTSVNVHSSLRDILNQITKPNDVYSFSLASRLYAEERYPILPEYLQCVKELYRGGLEPINFQTAADQARELINSWVESQTNGIIRNVLQPSSVDSQTAMVLVNAIVFKGLWEKAFKDEDTQAMPFRVTEQESKPVQMMYQIGLFRVASMASEKMKILELPFASGTMSMLVLLPDEVSGLEQLESIINFEKLTEWTSSNVMEERKIKVYLPRMKMEEKYNLTSVLMAMGITDVFSSSANLSGISSAESLKISQAVHAAHAEINEAGREVVGSAEAGVDAASVSEEFRADHPFLFCIKHIATNAVLFFGRCVSP	–	–	OVA: Ovalbumin (isoelectric point: 4.5, manufactured by Wako Pure Chemical Industries, Ltd., Cat. No.

Reference: patent publication US11472841B2, “Immunogenic composition” (MENICON CO., LTD., priority 2018, dated 2022)
